Experimental data taken from patent US20260272865A1, “HYDROXYPHENYL PROPANOATE COMPOUNDS FOR TUMOUR IMMUNOTHERAPY, COMPOSITIONS AND USES THEREOF” (UTI LIMITED PARTNERSHIP, priority 2023, published 2026).

How the values were obtained:
GSDMD = target: T1, GSDMD (Homo sapiens, UniProt P57764); assay: Western blot of GSDMD cleavage in THP-1 cells; type: cell-based
T1 construct: host or cells: THP1-Dual cells (human monocytic reporter line)
T1 sequence (P57764 1-484): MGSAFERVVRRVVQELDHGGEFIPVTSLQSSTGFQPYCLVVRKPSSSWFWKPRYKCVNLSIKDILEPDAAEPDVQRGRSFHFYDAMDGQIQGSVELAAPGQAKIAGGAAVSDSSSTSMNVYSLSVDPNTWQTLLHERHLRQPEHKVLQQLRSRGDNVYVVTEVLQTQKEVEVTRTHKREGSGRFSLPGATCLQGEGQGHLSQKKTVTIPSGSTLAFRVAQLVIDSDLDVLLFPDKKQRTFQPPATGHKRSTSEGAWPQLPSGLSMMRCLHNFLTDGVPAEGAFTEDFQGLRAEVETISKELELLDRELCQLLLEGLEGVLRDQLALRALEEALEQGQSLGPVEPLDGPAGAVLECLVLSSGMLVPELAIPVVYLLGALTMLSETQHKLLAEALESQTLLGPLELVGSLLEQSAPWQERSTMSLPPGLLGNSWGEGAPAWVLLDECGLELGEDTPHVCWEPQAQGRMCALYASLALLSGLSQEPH
Method: Cells were collected and lysates prepared using total lysis buffer (50 mM Tris-HCl, pH 8.0; 150 mM NaCl; 1% Triton X-100; 1% SDS). The supernatant was obtained by centrifuging at 10,000 RPM for 10 minutes at 4° C. using a benchtop PCR centrifuge. Protein quantification was performed using the Bio-Rad DC Protein Assay Kit (Bio-Rad, NC, USA). Proteins were separated using 12% SDS-PAGE gels and transferred to a PVDF membrane using the Bio-Rad Trans-turbo semi-dry transfer apparatus at 25 V/1 A for 1 hour. The membrane was blocked with Tris-buffered-saline-Tween-20™ (TBST) containing 5% skim milk for 30 minutes at room temperature. The membrane was then probed overnight at 4° C. with rabbit monoclonal recombinant anti-GSDMD antibody (ab210070, Abcam), anti-cleaved N-terminal GSDMD antibody (ab215203, Abcam) and mouse anti-actin monoclonal antibody (MAB1501, MilliporeSigma) for human FL-GSDMD, CL-GSDMD and actin. The next day, the membranes were washed with TBST three times and probed with goat anti-rabbit (1706515, Bio-Rad) or goat anti-mouse (1706516, Bio-Rad) horseradish peroxidase-conjugated IgG for 1 hour at room temperature. The secondary antibodies were diluted in TBST containing 5% (w/v) skim milk at 1:5000 and the membranes washed with TBST before detecting the proteins of interest using the Clarity™ Western ECL Substrate (Bio-Rad) on a Chemidoc-IT Imager (UVP, Upland, CA, USA).

NF-κB pathway = assay: NF-κB activity reporter assay in THP1-Dual cells; type: cell-based, human; details: for NF-κB pathway activation combined with PRR agonists: LPS or other NF-κB pathway inducers; for NF-κB pathway activation when treated with LPS: 16 hours, vs vehicle
Method: NF-κB and IRF induction assays were performed using mouse RAW-Dual™ (InvivoGen) and human THP1-Dua™ (InvivoGen) reporter cell lines. The cells were resuspended in freshly prepared test media at a concentration of 1.0×10^6 cells/mL for RAW-Dual™ and 5.0×10^5 cells/mL for THP1-Dual™. 180 μL of cells were seeded per well in a standard 96-well plate and optimized the concentration of several PRR agonists that trigger NF-κB and IRF. To test the metabolite effect on these pathways, 10 μL of the optimized receptor agonist, 10 μL of the 2 mM metabolite solution or vehicle was added to each well, making a final volume of 200 μL. To neutralize IL-1 receptor signalling, anti-IL-1a (clone 7D4, InvivoGen) and anti-IL-1β (clone 4H5, InvivoGen) antibodies were added and IgG1 isotype (clone T8E5, InvivoGen) was used as a control, as per manufacturer's recommendation. NF-κB activity was determined by measuring secreted embryonic alkaline phosphatase (SEAP) levels using QUANTI-Blue™ solution (InvivoGen). After aliquoting 20 μL of cell culture supernatant into 180 μL of QUANTI-Blue™, the conversion of color to blue was monitored and SEAP levels were determined using a SpectraMax i3 from Molecular Devices at 650 nm. To assess IRF induction, secreted lucia luciferase levels were measured in the culture medium using QUANTI-Luc™ solution (InvivoGen). 20 μL of cell culture supernatant was aliquoted into 50 μL of QUANTI-Luc™ solution and the luminescence reading was immediately recorded using the SpectraMax i3.

IRF pathway = type: cell-based, human
influenza virus = details: early study, Science 357, 498-502 (2017); cited from earlier work

| SMILES | NF-κB pathway activation when treated with LPS (NF-κB pathway) | further results |
| --- | --- | --- |
| O=C(O)CCc1cccc(O)c1 [Compound I-2, 3-(3-hydroxyphenyl)propanoic acid] | potentiates | GSDMD cleavage in the presence of LPS or LPS+NG stimulation (GSDMD): facilitating gasdermin D cleavage; NF-κB pathway activation combined with PRR agonists (NF-κB pathway): potentiate; IRF pathway activation combined with PRR agonists (IRF pathway): potentiate |
| O=C(O)CCc1ccc(O)cc1 [Compound I-3, 3-(4-hydroxyphenyl)propanoic acid] | potentiates | GSDMD cleavage in the presence of LPS or LPS+NG stimulation (GSDMD): facilitating gasdermin D cleavage; NF-κB pathway activation combined with PRR agonists (NF-κB pathway): potentiate; influenza virus pathology (influenza virus): protects from influenza virus pathology; type 1 interferon signalling (influenza virus): primes the amplification loop of type 1 interferon signalling; IRF pathway activation combined with PRR agonists (IRF pathway): potentiate |
| O=C([O-])CCc1ccc(O)cc1.[Na+] [Compound I-4, sodium 3-(4-hydroxyphenyl)propionic acid] | significantly enhanced the activation |  |
| COC(=O)CCc1ccc(O)cc1 [Compound I-5, methyl 3-(4-hydroxyphenyl) propionate] | significantly enhanced the activation |  |
| CCOC(=O)CCc1ccc(O)cc1 [Compound I-6, ethyl 3-(4-hydroxyphenyl)propionate] | significantly enhanced the activation |  |
| O=C(CCc1ccc(O)cc1)ON1C(=O)CCC1=O [Compound I-7, 3-(4-hydroxyphenyl)propionic acid N-hydroxysuccinimide ester] | significantly enhanced the activation |  |
| O=C(O)CCc1ccc(F)cc1 [II-1, 3-(4-fluorophenyl)propionic acid] | significantly enhanced the activation |  |
| O=C(O)CCc1ccc(Cl)cc1 [II-2, 3-(4-chlorophenyl)propionic acid] | significantly enhanced the activation |  |
| Nc1ccc(CCC(=O)O)cc1 [II-3, 3-(4-aminophenyl)propionic acid] | significantly enhanced the activation |  |
| Cc1ccc(CCC(=O)O)cc1 [II-4, 3-(4-methylphenyl)propionic acid] | significantly enhanced the activation |  |
| O=C(O)CCCc1ccc(O)cc1 [III-1, 4-(4-hydroxyphenyl)butanoic acid] | significantly enhanced the activation |  |
| O=C(O)CCCCc1ccc(O)cc1 [III-2, 5-(4-hydroxyphenyl)pentatonic acid] | significantly enhanced the activation |  |
| O=C(O)CCC(=O)c1ccc(O)cc1 [IV] | significantly enhanced the activation |  |
| NC(=O)CC[C@H](N)C(=O)O [L-gln, L-glutamine, reference compound] | had no effect | IRF pathway activation combined with PRR agonists (IRF pathway): had no effect |
